The IC50 is the concentration that gives 50% inhibition. The term melting point denotes the temperature, or range, at which the solid turns liquid.

The source of these data is patent US7825129B2, “Thieno[2,3-c] isoquinolines for use as inhibitors of PARP” (priority 2000, dated 2010).

Data set [1] concerns the target T1, poly(ADP-ribose) polymerase (PARP) (Bos taurus, UniProt P18493).
T1 construct: purified PARP derived from foetal calf thymus; from tissue; host or cells: foetal calf thymus
As to the kind of experiment: Activity against purified PARP, [3H]NAD incorporation. The settings on record: purified PARP from foetal calf thymus, 37° C., 30 mins; read-out: IC50 of PARP inhibitors tested on enzyme prepared from bovine thymus. It is filed as biochemical. The protocol:
The activity on PARP was evaluated using purified PARP derived from foetal calf thymus, as per Ito et al. (J. Biol. Chem. […]: 3647, 1979). […] The active fractions were used for the activity tests carried out as per Banasik et al. (J. Biol. Chem. 267: 1569, 1992). […] The reaction was terminated with 10% of trichloroacetic acid and the radioactivity associated with the protein was evaluated in a liquid scintillation spectrometer.

The subject of data set [2] is primary neuronal cultures. As to the kind of experiment: Post-ischaemic neuronal death in primary neuronal cultures exposed to oxygen and glucose deprivation. In kind it is cell-based. The settings on record: read-out: IC50 for reducing post-ischaemic neuronal death. Here is the method:
(§1) 2) The biological activity was evaluated in primary neuronal cultures exposed to oxygen and glucose deprivation (see: Neuropharmacology 38: 1007-[…]) and in vivo in rats with MCA [sic]. The volume of the infarct was measured 72 hrs after the occlusion using a method described previously (Cozzi et al., J. Cerebrali Blood Flow Metabolism 19: 771-777; 1999).

Data set [3] has as its system rats with permanent occlusion of the medial cerebral artery. As to the kind of experiment: MCAO stroke model in rats, infarct volume. The settings on record: 3-10 mg/kg i.p., infarct volume measured 72 hrs after occlusion. It is filed as in vivo, rat. Here is the method: as §1
In this stroke model, the compound (3-10 mg/kg i.p.) reduced by 40% the volume of necrotic brain induced by the permanent occlusion of the medial cerebral artery.

T1 sequence (P18493 whole entry): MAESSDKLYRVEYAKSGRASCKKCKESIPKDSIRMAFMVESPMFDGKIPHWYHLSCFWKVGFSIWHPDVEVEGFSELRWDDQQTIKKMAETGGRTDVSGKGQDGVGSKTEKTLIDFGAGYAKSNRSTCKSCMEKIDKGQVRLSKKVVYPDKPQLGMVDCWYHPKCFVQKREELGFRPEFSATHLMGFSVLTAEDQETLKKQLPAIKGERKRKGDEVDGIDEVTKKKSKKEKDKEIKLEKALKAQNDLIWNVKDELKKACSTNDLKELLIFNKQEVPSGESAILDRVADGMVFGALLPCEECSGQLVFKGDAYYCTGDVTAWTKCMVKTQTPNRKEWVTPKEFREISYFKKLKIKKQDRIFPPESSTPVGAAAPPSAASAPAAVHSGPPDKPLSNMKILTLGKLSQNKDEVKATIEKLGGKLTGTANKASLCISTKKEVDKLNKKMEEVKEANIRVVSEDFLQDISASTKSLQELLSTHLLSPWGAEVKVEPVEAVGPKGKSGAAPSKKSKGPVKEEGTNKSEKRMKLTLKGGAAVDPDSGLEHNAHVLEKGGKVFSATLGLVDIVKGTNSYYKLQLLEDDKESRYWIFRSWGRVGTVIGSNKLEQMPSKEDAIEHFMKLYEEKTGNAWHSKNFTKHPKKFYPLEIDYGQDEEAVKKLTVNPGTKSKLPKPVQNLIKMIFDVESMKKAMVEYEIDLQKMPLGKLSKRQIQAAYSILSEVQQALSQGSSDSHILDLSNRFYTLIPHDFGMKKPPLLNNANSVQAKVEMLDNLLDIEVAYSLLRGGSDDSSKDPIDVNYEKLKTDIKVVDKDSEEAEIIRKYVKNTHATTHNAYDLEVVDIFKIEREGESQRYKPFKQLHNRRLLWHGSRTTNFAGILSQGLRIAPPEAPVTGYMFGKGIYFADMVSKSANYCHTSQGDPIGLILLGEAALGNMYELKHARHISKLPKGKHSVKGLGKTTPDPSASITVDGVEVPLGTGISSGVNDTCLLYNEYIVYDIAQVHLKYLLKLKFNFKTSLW

Take `COc1cccc2c(=O)[nH]c3sccc3c12` [Example 3, 9-Methoxythieno[2,3-c]isoquinolin-5(4H)-one]: the melting point lay in the range of 198 to 200 °C. Also, in data set [1], the IC50 worked out at 0.3 µM.

Consider `O=c1[nH]c2sccc2c2c(O)cccc12` [Example 2, 9-Hydroxythieno[2,3-c]isoquinolin-5(4H)-one], for which the melting point was 298 to 301 °C. Besides, the IC50 in data set [1] came out at 0.1 µM.

Regarding `Nc1cccc2c(=O)[nH]c3sccc3c12` [Example 4, 9-Aminothieno[2,3-c]isoquinolin-5(4H)-one], the melting point is 297 to 299 °C. In addition, the concentration for half-maximal inhibition (IC50) in data set [1] was found to be 0.05 µM.

Regarding `O=c1[nH]c2sccc2c2ccccc12` [Example 1, Thieno[2,3-c]isoquinolin-5(4H)-one], in data set [2], the IC50 was roughly 3 µM. Moreover, the “reduction of the volume of necrotic brain” value in data set [3] is 40%.

For the compound `NC(=O)c1ccccc1` [Benzamide, reference compound], the IC50 in data set [1] is 90 µM.
